Activity calls are given as the source filed them. The calls are words filed in the database; no cut-off is given here.
How the values were obtained:
[1] = target: T1, X-box-binding protein 1 (Homo sapiens) (UniProt P17861); assay: Transactivation of XBP1 (unknown origin) transfected in rat IEC-6 cells at 10 uM after 48 hrs by dual luciferase reporter gene assay; assay type: cell-based
T1 sequence (whole entry): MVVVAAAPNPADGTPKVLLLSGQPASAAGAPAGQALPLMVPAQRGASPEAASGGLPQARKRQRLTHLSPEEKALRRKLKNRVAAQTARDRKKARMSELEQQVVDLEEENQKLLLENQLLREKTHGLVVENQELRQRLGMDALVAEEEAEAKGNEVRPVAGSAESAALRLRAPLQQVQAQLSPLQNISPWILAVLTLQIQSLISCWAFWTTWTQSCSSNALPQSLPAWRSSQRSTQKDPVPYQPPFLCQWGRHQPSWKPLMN

Mus musculus [2] = species: Mus musculus; assay: Anti-ulcerative colitis activity in DSS-induced acute C57Bl/6J mouse ulcerative colitis model; assay type: functional, organism-based
Mus musculus [3] = assay: Anti-ulcerative colitis activity in DSS-induced acute C57Bl/6J mouse ulcerative colitis model assessed as inhibition rate of disease activity index at 100 mg/kg, po qd measured on day 8 relative to control; assay type: functional; conditions: 192 h
Mus musculus [4] = assay: Anti-ulcerative colitis activity in DSS-induced acute C57Bl/6J mouse ulcerative colitis model assessed as appearance of regularly arranged IEC cells at 200 mg/kg, po qd measured on day 8; assay type: functional, organism-based
Mus musculus [5] = assay: Toxicity in DSS-induced acute C57Bl/6J mouse ulcerative colitis model assessed as change in body weight at 100 mg/kg, po qd (reference value: -15.3%); assay type: organism-based; conditions: in vivo
Mus musculus [6] = assay: Anti-ulcerative colitis activity in DSS-induced acute C57Bl/6J mouse ulcerative colitis model assessed as inhibition rate of disease activity index at 200 mg/kg, po qd measured on day 8 relative to control; assay type: functional; conditions: 192 h
Mus musculus [7] = assay: Anti-ulcerative colitis activity in DSS-induced acute C57Bl/6J mouse ulcerative colitis model assessed as inhibition rate of disease activity index at 50 mg/kg, po qd measured on day 8 relative to control; assay type: functional; conditions: 192 h
Mus musculus [8] = species: Mus musculus; assay: Potency index, ratio of compound activity to SASP activity for inhibition rate of disease activity index in DSS-induced acute C57Bl/6J mouse ulcerative colitis model; assay type: functional
Mus musculus [9] = assay: Toxicity in DSS-induced acute C57Bl/6J mouse ulcerative colitis model assessed as change in body weight at 50 mg/kg, po qd (reference value: -15.3%); assay type: organism-based; conditions: in vivo
Mus musculus [10] = assay: Anti-ulcerative colitis activity in DSS-induced acute C57Bl/6J mouse ulcerative colitis model assessed as improvement in colon contracture at 50 mg/kg, po qd measured on day 8 (reference value: 41.8%); assay type: functional
Mus musculus [11] = assay: Anti-ulcerative colitis activity in DSS-induced acute C57Bl/6J mouse ulcerative colitis model assessed as decrease in inflammatory lesions in colon tissue at 50 to 100 mg/kg, po qd measured on day 8; assay type: functional, organism-based
Mus musculus [12] = assay: Anti-ulcerative colitis activity in po dosed DSS-induced acute C57Bl/6J mouse ulcerative colitis model assessed as inhibition rate of disease activity index administered as qd measured on day 8; assay type: functional, organism-based
Mus musculus [13] = assay: Anti-ulcerative colitis activity in DSS-induced acute C57Bl/6J mouse ulcerative colitis model assessed as colon macroscopic damage index at 200 mg/kg, po qd measured on day 8 (reference value: 5.69 +/- 1.12); assay type: functional
Mus musculus [14] = assay: Anti-ulcerative colitis activity in DSS-induced acute C57Bl/6J mouse ulcerative colitis model assessed as colon macroscopic damage index at 100 mg/kg, po qd measured on day 8 (reference value: 5.69 +/- 1.12); assay type: functional
Mus musculus [15] = assay: Anti-ulcerative colitis activity in DSS-induced acute C57Bl/6J mouse ulcerative colitis model assessed as improvement in lesions of inflammatory bowel disease at 200 mg/kg, po qd measured on day 8; assay type: functional, organism-based
[16] = target: T1, X-box-binding protein 1 (Homo sapiens); assay: Transactivation of XBP1 (unknown origin) transfected in rat IEC-6 cells at 10 uM after 48 hrs by dual luciferase reporter gene assay relative to con 2; assay type: cell-based
Mus musculus [17] = assay: Anti-ulcerative colitis activity in DSS-induced acute C57Bl/6J mouse ulcerative colitis model assessed as improvement in colon contracture at 200 mg/kg, po qd measured on day 8 (reference value: 41.8%); assay type: functional
Mus musculus [18] = assay: Anti-ulcerative colitis activity in DSS-induced acute C57Bl/6J mouse ulcerative colitis model assessed as colon macroscopic damage index at 50 mg/kg, po qd measured on day 8 (reference value: 5.69 +/- 1.12); assay type: functional
Mus musculus [19] = assay: Toxicity in DSS-induced acute C57Bl/6J mouse ulcerative colitis model assessed as change in body weight at 200 mg/kg, po qd (reference value: -15.3%); assay type: organism-based; conditions: in vivo
Mus musculus [20] = assay: Anti-ulcerative colitis activity in DSS-induced acute C57Bl/6J mouse ulcerative colitis model assessed as improvement in colon contracture at 100 mg/kg, po qd measured on day 8 (reference value: 41.8%); assay type: functional
Mus musculus [21] = assay: Anti-ulcerative colitis activity in po dosed DSS-induced acute C57Bl/6J mouse ulcerative colitis model assessed as decrease in colon macroscopic damage index administered as qd measured on day 8; assay type: functional, organism-based
Mus musculus [22] = assay: Anti-ulcerative colitis activity in DSS-induced acute C57Bl/6J mouse ulcerative colitis model assessed as restoration of polarity arrangement of IEC cells to its normal physiological state at 200 mg/kg, po qd measured on day 8; assay type: functional, organism-based
Mus musculus [23] = assay: Anti-ulcerative colitis activity in DSS-induced acute C57Bl/6J mouse ulcerative colitis model assessed as improvement in number of visible colitis lesions at 300 mg/kg, po qd measured on day 8; assay type: functional, organism-based
Mus musculus [24] = assay: Toxicity in DSS-induced acute C57Bl/6J mouse ulcerative colitis model assessed as change in body weight at 300 mg/kg, po qd (reference value: -15.3%); assay type: organism-based; conditions: in vivo
Mus musculus [25] = assay: Anti-ulcerative colitis activity in DSS-induced acute C57Bl/6J mouse ulcerative colitis model assessed as inhibition rate of disease activity index at 300 mg/kg, po qd measured on day 8 relative to control; assay type: functional; conditions: 192 h
Mus musculus [26] = assay: Anti-ulcerative colitis activity in DSS-induced acute C57Bl/6J mouse ulcerative colitis model assessed as improvement in colon contracture at 300 mg/kg, po qd measured on day 8 (reference value: 41.8%); assay type: functional
Mus musculus [27] = assay: Anti-ulcerative colitis activity in DSS-induced acute C57Bl/6J mouse ulcerative colitis model assessed as colon macroscopic damage index at 300 mg/kg, po qd measured on day 8 (reference value: 5.69 +/- 1.12); assay type: functional
Mus musculus [28] = assay: Anti-ulcerative colitis activity in DSS-induced acute C57Bl/6J mouse ulcerative colitis model assessed as recovery of each muscle layer structure at 300 mg/kg, po qd measured on day 8; assay type: functional, organism-based
[29] = Cytotoxicity against rat IEC-6 cells assessed as cell survival at 10 uM after 24 to 72 hrs by MTT assay; assay type: cell-based; conditions: iec-6, 10 µM
Mus musculus [30] = species: Mus musculus; assay: Toxicity in C57Bl/6J mouse; assay type: organism-based; conditions: in vivo

Activity [1] | Structure (SMILES) | Activity (Mus musculus [2]) | further results
Active | Fc1ccc(Cc2c3[n+](cc4c5c(ccc24)OCO5)CCc2cc4c(cc2-3)OCO4)cc1 | inactive | –
Active | N#Cc1ccc(Cc2c3[n+](cc4c5c(ccc24)OCO5)CCc2cc4c(cc2-3)OCO4)cc1 | inactive | –
Active | O=c1c2c3c(ccc2cc2n1CCc1cc4c(cc1-2)OCO4)OCO3 | inactive | –
Active | COc1ccc(Cc2c3[n+](cc4c5c(ccc24)OCO5)CCc2cc4c(cc2-3)OCO4)cc1 | inactive | –
Active | Fc1cccc(Cc2c3[n+](cc4c5c(ccc24)OCO5)CCc2cc4c(cc2-3)OCO4)c1 | inactive | –
inactive | C=C(C(=O)c1ccc(OC)cc1)c1c2c3c(ccc2c(C)c2[n+]1CCc1cc4c(cc1-2)OCO4)OCO3 | – | –
inactive | C=C(C(=O)C1CC1)c1c2c3c(ccc2c(C)c2[n+]1CCc1cc4c(cc1-2)OCO4)OCO3 | – | –
Active | Fc1ccccc1Cc1c2[n+](cc3c4c(ccc13)OCO4)CCc1cc3c(cc1-2)OCO3 | inactive | –
– | O=C(O)c1cc(/N=N/c2ccc(S(=O)(=O)Nc3ccccn3)cc2)ccc1O [SULFASALAZINE] | – | Activity (Mus musculus [23]): Active; Activity (Mus musculus [24]): -8.42%; inhibition in vivo at 300 mg/kg (Mus musculus [25]): 30.6%; Activity (Mus musculus [26]): 30%; Activity_index (Mus musculus [27]): 3.98; Activity (Mus musculus [28]): Active
Active | Fc1ccc(CC2=C3c4cc5c(cc4CCN3Cc3c2ccc2c3OCO2)OCO5)cc1 | – | –
inactive | C=C(C(=O)C(C)(C)C)c1c2c3c(ccc2c(C)c2[n+]1CCc1cc4c(cc1-2)OCO4)OCO3 | – | –
Active | N#Cc1ccc(CC2=C3c4cc5c(cc4CCN3Cc3c2ccc2c3OCO2)OCO5)cc1 | – | –
Active | Fc1cccc(CC2=C3c4cc5c(cc4CCN3Cc3c2ccc2c3OCO2)OCO5)c1 | – | –
Active | CC1=C2c3cc4c(cc3CCN2Cc2c1ccc1c2OCO1)OCO4 | inactive | –
– | Cc1ccc(Cc2c3[n+](cc4c5c(ccc24)OCO5)CCc2cc4c(cc2-3)OCO4)cc1.[Cl-] | – | Activity [29]: Toxic
– | c1cc2c(c3c1CC1c4cc5c(cc4CCN1C3)OCO5)OCO2 (stereo not given) | inactive | –

Activity [1] | Structure (SMILES) | Activity (Mus musculus [2]) | further results
Active | Cc1c2[n+](cc3c4c(ccc13)OCO4)CCc1cc3c(cc1-2)OCO3 | inactive | –
inactive | C=C(C(=O)c1ccc(CC(C)C)cc1)c1c2c3c(ccc2c(C)c2[n+]1CCc1cc4c(cc1-2)OCO4)OCO3 | – | –
Active | CC(=O)CC1c2c(ccc3c2OCO3)C=C2c3cc4c(cc3CCN21)OCO4 (racemic) | – | inhibition in vivo at 100 mg/kg (Mus musculus [3]): 60.3%; Activity (Mus musculus [5]): 3.26%; inhibition in vivo at 200 mg/kg (Mus musculus [6]): 63.8%; inhibition in vivo at 50 mg/kg (Mus musculus [7]): 36.4%; Activity (Mus musculus [9]): -12.9%; Activity (Mus musculus [10]): 38.3%; inhibition (Mus musculus [12]): Dose-dependent effect; fold change (FC) [16]: 2.06; Activity (Mus musculus [17]): 20.4%; Activity (Mus musculus [19]): 3.33%; Activity (Mus musculus [20]): 28.8%
Active | COc1ccc(CC2=C3c4cc5c(cc4CCN3Cc3c2ccc2c3OCO2)OCO5)cc1 | – | –
Active | Cc1ccc(CC2=C3c4cc5c(cc4CCN3Cc3c2ccc2c3OCO2)OCO5)cc1 | – | –
inactive | C=C(C(=O)C(C)C)c1c2c3c(ccc2c(C)c2[n+]1CCc1cc4c(cc1-2)OCO4)OCO3 | – | –
inactive | C=C(C(=O)CCC)c1c2c3c(ccc2c(C)c2[n+]1CCc1cc4c(cc1-2)OCO4)OCO3 | – | –
– | C=C(C(=O)CC)c1c2c3c(ccc2c(C)c2[n+]1CCc1cc4c(cc1-2)OCO4)OCO3 | inactive | –
Active | Fc1ccccc1CC1=C2c3cc4c(cc3CCN2Cc2c1ccc1c2OCO1)OCO4 | – | –
inactive | C=C(C(=O)CCCC)c1c2c3c(ccc2c(C)c2[n+]1CCc1cc4c(cc1-2)OCO4)OCO3 | – | –
Active | Fc1ccc(Cc2c3[n+](cc4c5c(ccc24)OCO5)CCc2cc4c(cc2-3)OCO4)c(F)c1 | inactive | –
– | C=C(C(C)=O)c1c2c3c(ccc2c(C)c2[n+]1CCc1cc4c(cc1-2)OCO4)OCO3 | inactive | –
Active | FC(F)(F)c1cccc(CC2=C3c4cc5c(cc4CCN3Cc3c2ccc2c3OCO2)OCO5)c1 | – | –
Active | Fc1ccc(CC2=C3c4cc5c(cc4CCN3Cc3c2ccc2c3OCO2)OCO5)c(F)c1 | – | –
Active | N#CC1c2c(ccc3c2OCO3)C=C2c3cc4c(cc3CCN21)OCO4 (racemic) | – | Activity (Mus musculus [30]): Toxic
– | FC(F)(F)c1cccc(Cc2c3[n+](cc4c5c(ccc24)OCO5)CCc2cc4c(cc2-3)OCO4)c1.[Cl-] | – | Activity [29]: Toxic

Structure (SMILES) | Activity [1] | Activity (Mus musculus [2]) | further results
C1=C2c3cc4c(cc3CCN2Cc2c1ccc1c2OCO1)OCO4 | Active | – | inhibition in vivo at 100 mg/kg (Mus musculus [3]): 55.9%; Activity (Mus musculus [4]): Active; Activity (Mus musculus [5]): 0.4%; inhibition in vivo at 200 mg/kg (Mus musculus [6]): 74%; inhibition in vivo at 50 mg/kg (Mus musculus [7]): 48%; Ratio (Mus musculus [8]): <=2; Activity (Mus musculus [9]): -7%; Activity (Mus musculus [10]): 24.6%; Activity (Mus musculus [11]): inactive; inhibition (Mus musculus [12]): Dose-dependent effect; Activity_index (Mus musculus [13]): 2.16; Activity_index (Mus musculus [14]): 2.86; Activity (Mus musculus [15]): Active; fold change (FC) [16]: 2.96; Activity (Mus musculus [17]): 18.7%; Activity_index (Mus musculus [18]): 3.52; Activity (Mus musculus [19]): 6.8%; Activity (Mus musculus [20]): 20.8%; Activity (Mus musculus [21]): Dose-dependent effect; Activity (Mus musculus [22]): Active
C1=CC2CC=CCN2CC1 (stereo not given) | Active | – | –
